Key:
[1] = test system: female rabbit isolated heart; experiment: Monophasic action potential duration (MAPD90) in female rabbit isolated heart; conditions: ranolazine 0.1-100 μM
Method: Each rabbit was sedated using intramuscular injections of 6 mg/kg xylazine and 40 mg/kg ketamine and then anesthetized using a “cocktail” of ketamine (15 mg/kg)+xylazine (4 mg/kg) in 1.5 ml saline. The ketamine/xylazine cocktail was administered as an i.v. bolus via the marginal ear vein. After anesthesia was confirmed, the thorax was opened and the heart was quickly excised. The heart was placed in a modified Krebs-Henseleit (K-H) physiological saline solution at room temperature. The K-H solution contained (in mmol/L): NaCl 118, KCl 2.8, KH2PO4 1.2, CaCl2 2.5, MgSO4 0.5, pyruvate 2.0, glucose 5.5, Na2EDTA 0.57 and NaHCO3 25. […] CPP was measured (with a Biopac MP 150 pressure transducer, Goleta, Calif.) from a side port of the aortic catheter. […]
Monophasic action potential (MAP) and ECG electrodes from Harvard Apparatus Inc. (Holliston, Mass.) were used to record heart rate (in beats per minute, or bpm), left ventricular MAPs and a bipolar ECG MAP electrodes were pressure contact Ag—AgCl cells attached to a circular holder with springs to keep the electrodes in contact with the LV epicardial surface. […] To ensure that each response to drug had achieved a steady state before a drug concentration was changed, the MAP duration (from onset of depolarization to 100% repolarization) was measured using an on-screen caliper throughout each drug infusion period. […]

[2] = target: T1, hNav1.5 (Homo sapiens, UniProt Q14524); experiment: Tefluthrin-induced late sodium current in HEK293 cells expressing hNav1.5; format: cell-based; conditions: HEK293 cells expressing hNav1.5, tefluthrin 10 μM; read-out: Concentration causing a half-maximal inhibition of late Na+
T1 construct: expressed in transfected cells; host or cells: HEK293
Method: The effect of dronedarone on late INa has not been reported. Therefore we determined the effect of dronedarone on late INa induced by incubation of HEK293 cells expressing the human heart sodium channel gene Nav1.5 with the late INa enhancer tefluthrin. […] Thus, the combination of dronedarone and ranolazine may be anticipated to reduce late INa. A reduction of late INa in the heart has been associated with a reduction of atrial arrhythmias in patients and in animal models of atrial fibrillation.

T1 sequence (Q14524 whole entry): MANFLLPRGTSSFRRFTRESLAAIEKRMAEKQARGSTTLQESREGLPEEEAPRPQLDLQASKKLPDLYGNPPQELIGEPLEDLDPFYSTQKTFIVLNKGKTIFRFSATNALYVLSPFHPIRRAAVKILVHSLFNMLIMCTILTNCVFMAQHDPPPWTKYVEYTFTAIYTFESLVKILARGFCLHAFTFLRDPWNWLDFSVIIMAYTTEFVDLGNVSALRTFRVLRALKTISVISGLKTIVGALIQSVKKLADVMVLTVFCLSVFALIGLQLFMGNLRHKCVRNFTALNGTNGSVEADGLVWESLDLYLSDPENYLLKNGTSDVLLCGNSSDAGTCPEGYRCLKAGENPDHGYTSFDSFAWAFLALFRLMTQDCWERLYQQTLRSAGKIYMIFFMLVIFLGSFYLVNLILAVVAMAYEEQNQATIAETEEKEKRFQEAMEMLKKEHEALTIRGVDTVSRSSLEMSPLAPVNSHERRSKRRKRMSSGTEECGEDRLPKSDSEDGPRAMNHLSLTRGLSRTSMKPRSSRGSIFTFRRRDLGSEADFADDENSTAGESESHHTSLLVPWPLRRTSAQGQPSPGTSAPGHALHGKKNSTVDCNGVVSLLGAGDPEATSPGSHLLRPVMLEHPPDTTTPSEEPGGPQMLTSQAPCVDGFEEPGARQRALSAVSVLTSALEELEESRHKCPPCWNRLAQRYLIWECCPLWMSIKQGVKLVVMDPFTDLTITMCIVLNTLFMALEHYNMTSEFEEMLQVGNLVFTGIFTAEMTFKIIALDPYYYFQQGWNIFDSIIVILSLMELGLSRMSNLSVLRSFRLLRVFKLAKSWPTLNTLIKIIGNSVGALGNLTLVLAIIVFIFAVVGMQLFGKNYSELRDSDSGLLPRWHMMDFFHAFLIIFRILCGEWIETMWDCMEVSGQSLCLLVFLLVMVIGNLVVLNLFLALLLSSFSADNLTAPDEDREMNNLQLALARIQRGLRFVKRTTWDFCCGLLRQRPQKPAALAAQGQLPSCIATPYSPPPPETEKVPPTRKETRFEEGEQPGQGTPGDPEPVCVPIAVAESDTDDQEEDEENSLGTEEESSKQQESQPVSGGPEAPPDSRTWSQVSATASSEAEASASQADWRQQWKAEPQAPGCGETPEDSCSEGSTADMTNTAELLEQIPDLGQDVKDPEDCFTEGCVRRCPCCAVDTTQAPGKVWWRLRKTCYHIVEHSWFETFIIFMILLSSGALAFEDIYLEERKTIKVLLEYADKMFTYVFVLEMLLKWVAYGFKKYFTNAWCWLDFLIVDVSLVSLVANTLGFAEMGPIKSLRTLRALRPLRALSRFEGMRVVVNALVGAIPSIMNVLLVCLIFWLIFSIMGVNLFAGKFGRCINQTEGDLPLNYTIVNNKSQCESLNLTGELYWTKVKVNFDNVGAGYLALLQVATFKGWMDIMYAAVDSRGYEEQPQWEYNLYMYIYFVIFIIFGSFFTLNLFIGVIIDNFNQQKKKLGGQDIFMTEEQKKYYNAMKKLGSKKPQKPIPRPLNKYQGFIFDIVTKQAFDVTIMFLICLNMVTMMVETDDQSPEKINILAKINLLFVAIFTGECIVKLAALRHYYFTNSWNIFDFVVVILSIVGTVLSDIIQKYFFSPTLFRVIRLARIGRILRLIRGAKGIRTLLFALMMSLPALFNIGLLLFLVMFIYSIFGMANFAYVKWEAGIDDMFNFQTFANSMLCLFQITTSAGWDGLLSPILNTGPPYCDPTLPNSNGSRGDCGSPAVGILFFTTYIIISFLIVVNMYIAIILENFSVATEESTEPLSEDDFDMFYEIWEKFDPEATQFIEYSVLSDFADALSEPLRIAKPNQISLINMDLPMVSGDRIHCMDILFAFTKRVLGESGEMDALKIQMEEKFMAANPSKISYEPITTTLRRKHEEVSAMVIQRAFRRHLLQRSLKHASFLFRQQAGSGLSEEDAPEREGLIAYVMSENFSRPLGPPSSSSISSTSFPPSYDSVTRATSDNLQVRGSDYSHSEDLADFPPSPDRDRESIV

| Structure (SMILES) | Increase in MAPD90 [1] | MAPD90 ([1]; from 177±10) | IC50 [2] |
| --- | --- | --- | --- |
| COc1ccccc1OCC(O)CN1CCN(CC(=O)Nc2c(C)cccc2C)CC1 (racemic) [Ranolazine, (±)-N-(2,6-dimethylphenyl)-4-[2-hydroxy-3-(2-methoxyphenoxy)-propyl]-1-piperazineacetamide] | 22±6% | 215 ± 6 ms |  |
| CCCCc1oc2ccc(NS(C)(=O)=O)cc2c1C(=O)c1ccc(OCCCN(CCCC)CCCC)cc1 [Dronedarone, N-(2-Butyl-3-(p-(3-(dibutylamino)propoxy)benzoyl)-5-benzofuranyl)methanesulfonamide] |  |  | 4 µM |

— patent US9056108B2, “Method of treating atrial fibrillation” (Gilead Sciences, Inc., priority 2009, dated 2015)
